Source: patent publication US20200239530A1, “COMPOUNDS AND METHODS OF MODULATING PROTEIN DEGRADATION” (Vividion Therapeutics, Inc., priority 2017, published 2020)
Where two headings read alike, the source gives them in different places.

Assays:
Assay type in all cases: binding
[1] = molecular target: T1, cysteine residue illustrated in Table 1A or Table 2A (Homo sapiens, UniProt O95628); assay: Competitive cysteine profiling of cell lysate with desthiobiotin iodoacetamide probe (96-well sample prep); details: UniProt O95628; 100 uM
T1 construct: endogenous in cells
T1 sequence (O95628 1-575): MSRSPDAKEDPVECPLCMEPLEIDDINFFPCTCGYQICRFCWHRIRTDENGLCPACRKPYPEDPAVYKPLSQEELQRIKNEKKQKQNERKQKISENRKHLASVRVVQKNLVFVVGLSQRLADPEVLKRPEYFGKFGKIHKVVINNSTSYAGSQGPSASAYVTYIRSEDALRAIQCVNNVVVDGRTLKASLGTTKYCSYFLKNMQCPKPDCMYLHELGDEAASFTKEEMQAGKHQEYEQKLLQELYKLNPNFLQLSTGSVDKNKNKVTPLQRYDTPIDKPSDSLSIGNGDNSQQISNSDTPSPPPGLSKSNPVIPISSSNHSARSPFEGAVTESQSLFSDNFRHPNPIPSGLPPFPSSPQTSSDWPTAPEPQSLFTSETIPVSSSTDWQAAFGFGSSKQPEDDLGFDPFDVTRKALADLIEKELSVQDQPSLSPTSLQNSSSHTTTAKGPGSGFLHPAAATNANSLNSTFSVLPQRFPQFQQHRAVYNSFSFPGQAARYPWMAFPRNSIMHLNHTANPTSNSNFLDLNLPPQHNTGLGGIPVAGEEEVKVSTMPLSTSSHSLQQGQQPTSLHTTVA
Experimental: (§1) In some embodiments, the solution sample (e.g., cell sample, cell lysate sample, or comprising isolated proteins) is incubated with a compound of Formula (I) for analysis of protein-probe interactions. In some instances, the solution sample (e.g., cell sample, cell lysate sample, or comprising isolated proteins) is further incubated in the presence of an additional compound probe prior to addition of the compound of Formula (I). […] In such instances, the solution sample is incubated with a probe and a ligand for competitive protein profiling analysis.
(§2) The following 96-well sample prep protocol was used for sample preparation.
(§3) Cells were resuspended in cold PBS on ice and sonicated with a probe sonicator to achieve lysis. 200 μL of lysate containing 5 mg/ml proteome was treated with 2 μL of 100× compound stock in a 2-mL deep-well plate. The treated lysate was subsequently incubate at 25° C. for 1 hr with shaking at 600 rpm. The treated lysate was further incubated with 2 μL of 10 mM desthiobiotin iodoacetamide probe at 25° C. for 1 hr with shaking at 600 rpm. Next, the lysate was further treat with 20 μL of solution of PBS containing 11 mM MgSO4 and 2.5% Turbonuclease stock and incubated at 25° C. for 20 minutes with shaking at 600 rpm. 1.7 mL ice-cold acetone was added to each well and incubated at −20° C. for 2 hr, followed by max speed (4200 rpm) spin for 45 min. Acetone was then decanted and the plates were blotted to remove acetone. The plates were then dried in open air for 20 minutes. After drying, the plates were then covered with foil seal and stored at −80° C. overnight.
(§4) The next day, samples were re-suspended in 90 μL of solution of 9M urea, 50 mM ammonium bicarbonate and 10 mM DTT by incubating at 65C for 20 min with shaking at 1500 rpm. Next, samples were cooled to 37° C. and then 10 μL of 500 mM iodoacetamide solution (92.48 mg/ml) was added. The samples were then incubated at 37° C. for 30 min with shaking at 600 rpm.
(§5) ZEBA desalting plates were equilibrated 4 times using 250 μL of 2M urea, 50 mM ammonium bicarbonate solution followed by centrifugation at 1500 rpm for 2 minutes. After equilibration was complete, samples were applied to ZEBA desalting plate and spin at 1500 rpm for 2 min on top of 1 mL 96-well deep-well collection plate to buffer exchange samples. 4 μL of solution containing 25 mM CaCl2 and 0.25 mg/mL trypsin was added to the plate and the plate was then incubated at 37° C. for 2 hrs with shaking at 600 rpm. 300 μL of solution containing 5% high-capacity streptavidin agarose slurry in 25 mM Tris-HCl pH 7.5, 150 mM NaCl, and 0.1% NP-40 then added. The plate was incubated at 25° C. for 2 hrs with shaking at 600 rpm. Samples were transferred to 25 μm filter plate and spin at 1000 rpm for 2 min. Samples were then washed 3 times with 0.75 mL of wash buffer (25 mM Tris-HCl pH 7.5, 150 mM NaCl, and 0.1% NP-40) followed by washing 3 times with 0.75 mL PBS, and then 4 times with 0.75 mL water. After the washing step, samples were eluted into polypropylene 96-well plate by addition of 250 µL of 50% MeCN/water, 0.1% formic acid and allowed to gravity drip for 10 min, followed by centrifugation at 1000 rpm for 2 min. Speedvac was used to dry the plates at about 45° C. for […]. Then the plates were covered with foil seal and stored at −20° C.
(§6) Samples were resuspended by addition of 20 μl of 12.5% ACN, 0.1% formic acid solution, covered with foil seal, and incubated at 42° C. for 10 minutes with shaking at 600 rpm. Then add 30 μL of 0.1% formic acid solution was added and the plate was covered and incubated at 42° C. for 10 minutes with shaking at 600 rpm. Seal plate was then sealed with a 96-well silicon mat for analysis.

[2] = molecular target: T2, cysteine residue illustrated in Table 1A or Table 2A (Homo sapiens, UniProt Q86X83); assay: as above; details: UniProt Q86X83
T2 construct: Cells were resuspended in cold PBS on ice and sonicated with a probe sonicator to achieve lysis; endogenous in cells
Experimental: as §1, §2, §3, §4, §5, §6

Q8NEG5 = molecular target: T3, Q8NEG5 (Homo sapiens, UniProt Q8NEG5); assay: Cysteine liganding, probe competition (Table 2B)
T3 construct: endogenous in cells; whole-cell lysate
T3 sequence (Q8NEG5 1-633): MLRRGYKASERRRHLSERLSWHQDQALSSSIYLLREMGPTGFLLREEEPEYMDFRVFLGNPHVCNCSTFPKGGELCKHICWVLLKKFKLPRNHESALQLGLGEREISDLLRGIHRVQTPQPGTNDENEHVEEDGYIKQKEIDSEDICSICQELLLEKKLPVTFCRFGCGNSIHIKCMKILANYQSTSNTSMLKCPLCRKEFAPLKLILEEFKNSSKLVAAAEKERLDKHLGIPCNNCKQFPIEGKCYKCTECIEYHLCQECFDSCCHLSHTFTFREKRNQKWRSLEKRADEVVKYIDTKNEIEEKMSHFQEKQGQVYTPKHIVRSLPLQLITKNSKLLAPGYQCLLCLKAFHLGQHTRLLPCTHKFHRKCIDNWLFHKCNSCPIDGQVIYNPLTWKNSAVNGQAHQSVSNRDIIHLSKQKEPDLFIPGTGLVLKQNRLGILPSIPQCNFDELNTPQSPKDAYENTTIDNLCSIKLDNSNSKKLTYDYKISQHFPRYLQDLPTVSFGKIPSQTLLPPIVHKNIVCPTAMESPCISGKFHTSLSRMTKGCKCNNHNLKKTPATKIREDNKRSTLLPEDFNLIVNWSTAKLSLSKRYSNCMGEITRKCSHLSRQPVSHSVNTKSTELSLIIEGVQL
Text: as §2

T2 sequence (Q86X83 whole entry): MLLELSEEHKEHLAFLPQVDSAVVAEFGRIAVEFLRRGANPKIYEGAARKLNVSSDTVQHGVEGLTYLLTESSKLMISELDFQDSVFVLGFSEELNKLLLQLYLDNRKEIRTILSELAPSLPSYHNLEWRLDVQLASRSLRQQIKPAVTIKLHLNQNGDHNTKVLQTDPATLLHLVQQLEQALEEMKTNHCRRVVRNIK

COc1ccc2c(c1)CCCN2C(=O)CCl [KB02]
KB02_100 uM_percent_inhibition [1]: 6% | KB02_100 uM_percent_inhibition ([2]; 100 uM): 31% | KB02_500 uM_percent_inhibition ([2]; 500 uM): 83% | inhibition at 500 µM (Q8NEG5; read-out: KB02_500 uM_percent_inhibition): 35%

C=CC(=O)N(c1ccccc1)c1ccc(Br)cc1 [KB05]
KB05_100 uM_percent_inhibition [1]: 94% | KB05_100 uM_percent_inhibition ([2]; 100 uM): 38% | KB05_500 uM_percent_inhibition ([2]; 500 uM): 78% | inhibition at 500 µM (Q8NEG5; read-out: KB05_500 uM_percent_inhibition): 16%

O=C(CCl)Nc1cc(C(F)(F)F)cc(C(F)(F)F)c1 [KBO3]
KB03_100 uM_percent_inhibition [1]: 13% | KB03_100 uM_percent_inhibition ([2]; 100 uM): 35% | KB03_500 uM_percent_inhibition ([2]; 500 uM): 72% | KB03_500 uM_percent_inhibition (Q8NEG5; 500 uM): 8%
